Calls of active or inactive are those of the source. How the calls were made is not given here.

In the test the test system is 3C-like protease (Infectious bronchitis virus). Briefly: blockers of SARS 3CLpro activity – biochemical, fluorescence, set 3, late-stage follow-up (AID 493245). The settings on record: recombinant 3CLpro, fluorogenic substrate cleavage; at 100 µM; stronger effect = higher value.
The term inhibition denotes the change of the read-out against control, counted positive when it falls. With `CC(C)(C)NC(=O)C(c1cccnc1)N(C(=O)c1ccco1)C1CCCCC1` (stereo unspecified), the inhibition was 4.49% (inactive).
As for `O=C(Nc1ccc(N(C(=O)Cn2nnc3ccccc32)C(C(=O)NCc2ccccc2)c2cccc(F)c2)cc1)C1CCC1` (stereo unspecified), the inhibition was 62.5%.
Then `CC(C)(C)NC(=O)C(c1cccnc1)N(C(=O)c1ccco1)C1CC2CCC1C2` (stereo unspecified), with 5.71% (inactive).
For the molecule `CC(C)C(=O)Nc1ccc(N(C(=O)Cn2nnc3ccccc32)C(C(=O)NCc2ccccc2)c2cccc(F)c2)cc1` (stereo unspecified), the inhibition is 73.5%.
In the case of `O=C(Nc1ccc(N(C(=O)Cn2nnc3ccccc32)C(C(=O)NCc2ccccc2)c2cccc(F)c2)cc1)C1CC1` (stereo unspecified), the inhibition is 68.8%.
Under `CC(C)(C)NC(=O)C(c1cccnc1)N(C(=O)c1ccco1)C12CC3CC(CC(C3)C1)C2` (stereo unspecified) stands 1.27% (inactive).

(Values after PubChem BioAssay AID493245 (The Scripps Research Institute Molecular Screening Center, 2011).)
